# Calls of active or inactive are those of the source.
# Columns and labels:
# [1] = target: T1, Nuclear receptor subfamily 0 group B member 1 (Homo sapiens, UniProt P51843); experiment: Luminescence-based cell-based high throughput dose response assay for inhibitors of the orphan nuclear receptor subfamily 0, group B, member 1 (DAX1; NR0B1). [Related pubchem assays (depositor defined):AID504766, AID504790]; format: functional
# T1 sequence (P51843 whole entry): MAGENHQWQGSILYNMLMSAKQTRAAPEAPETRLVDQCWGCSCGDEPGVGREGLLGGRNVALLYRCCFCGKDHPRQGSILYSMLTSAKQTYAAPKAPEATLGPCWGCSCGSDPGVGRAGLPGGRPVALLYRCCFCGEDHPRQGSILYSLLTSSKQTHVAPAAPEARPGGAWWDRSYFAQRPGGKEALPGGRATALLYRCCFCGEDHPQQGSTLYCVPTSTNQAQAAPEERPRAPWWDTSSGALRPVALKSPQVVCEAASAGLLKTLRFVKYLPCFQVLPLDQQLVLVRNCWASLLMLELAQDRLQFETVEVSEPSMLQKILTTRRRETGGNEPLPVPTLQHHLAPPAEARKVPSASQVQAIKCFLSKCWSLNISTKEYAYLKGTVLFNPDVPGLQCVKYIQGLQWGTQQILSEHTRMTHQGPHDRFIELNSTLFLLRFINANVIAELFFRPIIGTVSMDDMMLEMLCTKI
# [2] = inhibition of ADAM10 peptide cleavage – biochemical, FRET peptide substrate, recombinant human ADAM10, selectivity assay for ADAM17 exosite inhibitor project, dose response (AID 743259);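 note: ADAM10 enzyme cleaving a FRET peptide substrate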
# [3] = target: Disintegrin and metalloproteinase domain-containing protein 17 (Homo sapiens, UniProt P78536); experiment: exosite inhibitors of ADAM17, dose response, biochemical (AID 743260)
# HEK293 [4] = experiment: cells; format: functional, cell-based; details: Homo sapiens
# cells [5] = experiment: cells
# cells [6] = details: HEK293
# cells [7] = experiment: cells; remark: listed apart in the source
# Major prion protein = Major prion protein (Homo sapiens, UniProt P04156); format: functional, cell-based
# [8] = reduction of Shn3 3'UTR-driven luciferase in osteoblasts – cell-based, Clone20 osteoblasts, firefly luciferase, cherry-picked, dose response (AID 624132); format: functional;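 note: firefly luciferase luminescence from reporter carrying the Shn3 3'UTR in osteoblasts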
# [9] = non-specific 3'UTR reporter inhibition in Clone20-Shn3RL – cell-based, Renilla luciferase, cherry-picked, counter-screen for Shn3 inhibitor project, dose response (AID 624133); format: functional
# [10] = EF1alpha-driven Renilla reporter with control 3'UTR suppression – Clone20-Shn3RL cells, dual-Glo, cherry-pick, set 2, counter-screen for Shn3 3'UTR targeting project, dose response (AID 720724); format: functional, cell-based; details: Dual-Go Shn3RL
# [11] = Shn3 3'UTR reporter signal decrease – cell-based, Clone20 osteoblasts, firefly luciferase, cherry-pick, set 2, Schnurri-3 inhibitor project, dose response (AID 720490); format: functional;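 note: actives lower the luminescence signal as inhibitors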
# [12] = growth inhibition of PfATP4-mutant resistant parasites – NITD609-resistant line, SYBR Green, dry powder, dose response (AID 1159571); format: functional, cell-based;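 note: parasites synchronized at ring stage by sorbitol before testing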
# [13] = growth inhibition of yeast DHODH-expressing 3D7 parasites – SYBR Green, dry powder samples, dose response (AID 1159570); format: functional, cell-based;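 note: parasite growth measured after 72 hours of compound exposure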
# [14] = HEK293 Cytotoxicity Assay Measured in Cell-Based System Using Plate Reader - 7071-01_Inhibitor_Dose_CherryPick_Activity_Set2.; format: functional
# [15] = toxicity to human HepG2 hepatoma cells – cell-based, plate reader, dry powder samples, cytotoxicity control, dose response (AID 1159569); format: functional;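 note: inhibitor potency with signal falling toward the positive control level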
# [16] = P. falciparum Dd2 growth inhibitors, dose response, SYBR Green, cherry-picked samples (AID 1159567); format: functional, cell-based
# [17] = toxicity to human hepatoma HepG2 cells – cell-based, cherry-picked samples, cytotoxicity control, dose response (AID 1159577); format: functional
# HeLa = experiment: viability loss in HeLa cells – cell-based, ATP luminescence, cherry-pick samples, cytotoxicity control, dose response (AID 687004); format: functional; details: Homo sapiens
# HEK293 [18] = experiment: viability loss in HEK293T cells – cell-based, ATP luminescence, cherry-pick samples, cytotoxicity control, dose response (AID 687005); format: functional; details: Homo sapiens;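 note: cells exposed to compound for 48 hours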
# [19] = Dd2 malaria parasite growth inhibition potency – SYBR Green, dry powder samples, dose response (AID 1159566); format: functional, cell-based;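 note: potency for growth inhibition with lower SYBR green DNA signal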
# [20] = viability loss in MITF-independent A375 cells – cell-based, CellTiter-Glo luminescence, dry powder, set 2, counter-screen for MITF inhibitor project, dose response (AID 624489); format: functional; details: A-375;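 note: actives are compounds lowering A375 viability meaning general cytotoxicity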
# [21] = cytotoxicity in MITF-independent A375 cells – cell-based, CellTiter-Glo luminescence, dry powder, set 4, counter-screen for MITF inhibitor project, dose response (AID 624364); format: functional; details: A-375;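 note: A375 melanoma cells are MITF independent so this is a counter screen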
# [22] = viability loss in HEK293 cells – cell-based, plate reader, cherry-picked samples, cytotoxicity control, dose response (AID 743446); format: functional
# [23] = toxicity toward HepG2 liver cells – cell-based, plate reader, cherry-pick, antagonist series, cytotoxicity control, dose response (AID 743416); format: functional
# [24] = A549 cell cytotoxicity, dose response, cytotoxicity control, plate reader, cherry-pick, antagonist series (AID 743412); format: functional, cell-based
# [25] = inhibition of bursicon-driven LGR2 cAMP signaling – cell-based, HEK293, CRE-luciferase reporter, cherry pick, dose response (AID 743342); format: functional
# [26] = blockade of melanocortin 4 receptor signaling – cell-based, plate reader, cherry pick, counter-screen for LGR2 antagonist project, dose response (AID 743444); format: functional;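 note: transfected HEK 293 cells stimulated with alpha-MSH peptide; potency of inhibitors of the alpha-MSH evoked signal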
# [27] = Cytotoxicity screening for potential Inhibitors of Bacterial Capsule Biogenesis (4).; format: functional
# [28] = MITF: Counter assay: A375 proliferation Measured in Cell-Based System Using Plate Reader - 2084-03_Inhibitor_Dose_DryPowder_Activity_Set8.; format: functional; details: A-375
# [29] = MITF Orthogonal Assay: SK-MEL-5 CTG Assay Measured in Cell-Based System Using Plate Reader - 2084-02_Inhibitor_Dose_DryPowder_Activity_Set7.; format: functional
# [30] = inhibitors of TRPM1-promoter reporter in SK-MEL-5 – cell-based, luciferase, dry powder, set 8, MITF inhibitor project, dose response (AID 624430); format: functional
# Fatty acid synthase = Fatty acid synthase (Homo sapiens, UniProt P49327); experiment: inhibition of human FAS-TE enzyme activity – biochemical, endpoint fluorescence intensity, powder samples, SAR follow-up (AID 652164); format: functional
# [31] = CTGF mRNA reduction in DLD1 cells – cell-based, DLD1 colon cancer, RT-qPCR, cherry-pick, dose response (AID 1053122); format: functional; details: Cancer cell lines
# [32] = viability loss in HepG2 liver cells – cell-based, ATP luminescence, cherry-pick, set 6, cytotoxicity control, dose response (AID 1053125); format: functional
smiles,measurement,setting,value
COCCOc1ccc(C(F)(F)F)cc1NC(=O)CN1C(=O)NC(C)(c2ccc3c(c2)OCO3)C1=O (stereo not given),IC50,[1],> 67.5 µM (inactive)
same,IC50,[2],27.7 µM (inactive)
same,IC50,[3],> 69.5 µM (inactive)
same,IC50,HEK293 [4],> 67.5 µM (inactive)
CC(C)OCCCn1c(=N)c(C(N)=S)cc2c(=O)n3ccccc3nc21,AC50,cells [5],0.61 µM (active)
Cc1ccc2c(c1)-c1c(cnn1CC(=O)Nc1ccccc1N1CCN(C)CC1)CO2,AC50,cells [6],47.1 µM (active)
O=C(O)c1ccccc1C(=O)c1cccc2c(Br)cccc12,IC50,cells [7],> 138 µM (inactive)
same,IC50,Major prion protein,1.57 µM (active)
COC(=O)C1=C(c2ccc(OCc3ccccc3)cc2)C[C@@H]2CC[C@H]1N2C(=O)NCCCCc1ccccc1,AC50,[8],2.8 µM (active)
same,AC50,[9],25.6 µM (active)
same,AC50,[10],35.9 µM (active)
same,AC50,[11],10.3 µM (active)
C[C@@H]1CN([C@@H](C)CO)C(=O)c2c(c3ccccc3n2C)-c2ccccc2CO[C@@H]1CN(C)S(=O)(=O)c1ccc(Cl)cc1,AC50,[12],3.4 µM (active)
same,AC50,[13],3.95 µM (active)
same,AC50,[14],25.3 µM (active)
same,AC50,[15],39.2 µM (active)
same,AC50,[16],2.33 µM (active)
same,AC50,[17],> 39 µM (inactive)
same,AC50,HeLa,49.1 µM (active)
same,AC50,HEK293 [18],25.3 µM (active)
same,AC50,[19],1.97 µM (active)
CN1CCN(C2=C(NC(=O)c3ccccc3)C(=O)c3ccccc3C2=O)CC1,AC50,[20],12.9 µM (active)
same,AC50,[21],17 µM (active)
C[C@H]1CCCCO[C@@H](CN(C)S(=O)(=O)c2ccc(Cl)cc2)[C@@H](C)CN([C@@H](C)CO)C(=O)c2cc(NC(=O)NC3CCCCC3)ccc2O1,AC50,[22],> 52 µM (inactive)
same,AC50,[23],> 52 µM (inactive)
same,AC50,[24],20.1 µM (active)
same,AC50,[25],32.4 µM (active)
same,AC50,[26],30.1 µM (active)
Cc1nc2ccc(C(=O)Nc3ccncc3)cc2s1,CC50,[27],> 300 µM (active)
O=C1C(Nc2ccc(F)cc2)=C(N2CCCC2)C(=O)c2ccccc21,AC50,[28],11.9 µM (active)
same,AC50,[29],0.625 µM (active)
same,AC50,[30],0.583 µM (active)
O=C(Nc1nc(-c2ccc(S(=O)(=O)N3CCOCC3)cc2)cs1)C1CCCC1,IC50,Fatty acid synthase,> 80 µM (inactive)
CCc1nc(N2[C@H](CO)[C@@H](c3ccccc3-c3ccc(F)cc3)[C@@H]2C#N)sc1C,AC50,[31],> 26 µM (inactive)
Cc1cccn2c(=O)c3cc(C#N)/c(=N\C(=O)c4cccs4)n(CC(C)C)c3nc12,AC50,[32],> 52 µM (inactive)
